Measurements from patent US20130040331A1, “LABEL-FREE METHODS RELATED TO hERG POTASSIUM ION [sequence]” (CORNING INCORPORATED, priority 2009, published 2013).

Experiments:
HT29 cells = test: Label-free RWG biosensor (Epic) DMR assay, agonism mode, HT29 cells endogenously expressing hERG; assay type: cell-based, human
Method: (§1) Epic® wavelength interrogation system (Corning Inc., Corning, N.Y.) was used for whole cell sensing. This system consists of a temperature-control unit, an optical detection unit, and an on-board liquid handling unit with robotics. The detection unit is centered on integrated fiber optics, and enables kinetic measures of cellular responses with a time interval of ˜15 sec.
(§2) Cells were plated in 384-well Epic® cell culture treated plate (Corning Cat#5040) 16-20 hours before assay (15000 cells/well for HEK293 and HEK-hERG cells, 30000 cells/well for HT29 cells). For both HEK-hERG and its parental HEK293 cells, each well was coated with 10 μl 5 μg/ml fibronectin. One hour before assay, cells were washed twice on a BioTek ELx405 Select washer with Hank's Balanced Salt Solution (HBSS) containing 20 mM Hepes. Cells were incubated in 40 μl/well HBSS at 28° C. inside the Epic system for one hour. For each assay, a 2-min baseline was initiated, followed by addition of 10 μl compound solutions (5×) and the cell responses were recorded continuously for one hour.
(§3) All studies were carried out at a controlled temperature (28° C.). At least two independent sets of experiments, each with at least three replicates, were performed. […] All dose-dependent responses were analyzed using non-linear regression method with the GraphPad Prism 5.
(§4) Three different types of cells: human colon cancerous cell line HT-29, HEK293 and its engineered HEK-hERG cell lines were used. HT-29 is known to endogenously express hERG channels. HEK293 is a native cell line without endogenously expressed hERG channels, while HEK-hERG is an engineered HEK293 cells having stably expressed hERG channels. Mallotoxin, a newly discovered hERG activator, was used to activate hERG channels at or near physiological conditions (i.e., 1×HBSS buffered conditions).

[1] = test system: mallotoxin DMR signal in HT29 cells; test: DMR modulation index against the mallotoxin DMR signal in HT29 cells; assay type: cell-based, human
Excerpt: (§5) A “molecule modulation index” or like terms is an index to display the ability of the molecule to modulate the biosensor output signals of the panels of markers acting on the panel of cells. The modulation index is generated by normalizing a specific biosensor output signal parameter of a response of a cell upon stimulation with a marker in the presence of a molecule against that in the absence of any molecule.
as §1, §2, §3
(§6) The DMR modulation index was generated by normalizing the mallotoxin DMR signal in either cell line in the presence of compound […] to its corresponding DMR signal in the absence of the compound, and the percentage of modulation was based on the amplitude of the mallotoxin DMR signal at a specific time (−18 min after stimulation for HEK-hERG cells, and ˜50 min after stimulation for HT29 cells, respectively). Mallotoxin is known to display polypharmacology. It is also known to be a protein kinase C (PKC) inhibitor; and PKC is a downstream signaling component of hERG activation. Thus, it would be difficult or almost impossible to assign the mode(s) of action of mallotoxin to be a hERG activator when either cell line is individually assayed with the label-free biosensor (i.e., Epic® system). […] However, combining the primary DMR profiles of a compound across the three cell lines tested with the modulation index of the compound against the mallotoxin responses in both HT29 and […] cells can correctly identify whether the compound is a hERG activator or not. The results shown in FIG. 1 indicate that indeed mallotoxin is a hERG activator; and the activation of hERG can result in detectable biosensor responses in the two hERG expressing cell lines.

hERG channel [2] = biological target: T1, hERG channel (Homo sapiens, UniProt Q12809); settings: oocytes, cited from earlier work
T1 sequence (Q12809 whole entry): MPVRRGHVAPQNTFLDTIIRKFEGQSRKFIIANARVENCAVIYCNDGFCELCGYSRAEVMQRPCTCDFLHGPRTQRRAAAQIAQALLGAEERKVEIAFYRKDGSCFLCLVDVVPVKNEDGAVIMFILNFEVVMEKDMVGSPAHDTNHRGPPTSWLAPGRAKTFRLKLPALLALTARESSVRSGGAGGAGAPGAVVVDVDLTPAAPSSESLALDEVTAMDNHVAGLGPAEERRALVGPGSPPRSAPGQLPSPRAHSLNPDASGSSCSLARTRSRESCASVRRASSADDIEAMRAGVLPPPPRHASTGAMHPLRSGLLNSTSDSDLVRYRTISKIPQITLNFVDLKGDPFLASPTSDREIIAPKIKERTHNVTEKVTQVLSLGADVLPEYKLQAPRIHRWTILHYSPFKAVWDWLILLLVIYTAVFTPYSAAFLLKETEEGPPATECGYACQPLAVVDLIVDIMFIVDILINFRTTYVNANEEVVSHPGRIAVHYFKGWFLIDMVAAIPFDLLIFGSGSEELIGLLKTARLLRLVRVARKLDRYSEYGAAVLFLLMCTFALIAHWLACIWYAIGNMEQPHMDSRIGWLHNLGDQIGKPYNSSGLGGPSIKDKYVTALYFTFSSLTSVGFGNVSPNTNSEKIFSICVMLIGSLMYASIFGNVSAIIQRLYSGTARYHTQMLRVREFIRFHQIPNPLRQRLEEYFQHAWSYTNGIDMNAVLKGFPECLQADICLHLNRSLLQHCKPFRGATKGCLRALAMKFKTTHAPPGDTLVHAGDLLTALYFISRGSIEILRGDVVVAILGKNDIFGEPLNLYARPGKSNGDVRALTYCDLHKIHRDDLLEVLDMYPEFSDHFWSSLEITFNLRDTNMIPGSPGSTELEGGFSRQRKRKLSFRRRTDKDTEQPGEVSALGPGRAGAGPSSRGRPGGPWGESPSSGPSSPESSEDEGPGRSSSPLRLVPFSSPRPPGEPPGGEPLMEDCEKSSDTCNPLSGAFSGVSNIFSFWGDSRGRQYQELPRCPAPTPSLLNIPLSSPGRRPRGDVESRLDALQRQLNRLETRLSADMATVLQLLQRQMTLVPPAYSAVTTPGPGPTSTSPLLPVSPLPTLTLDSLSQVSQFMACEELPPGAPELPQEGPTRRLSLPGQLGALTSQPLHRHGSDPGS

HEK-hERG cells [3] = test: Label-free RWG biosensor (Epic) DMR assay, agonism mode, HEK-hERG cells stably expressing hERG; assay type: cell-based, human
Method: as §1, §2, §3, §4

hERG channel [4] = biological target: T1, hERG channel; test: Rb+ flux assay using HEK-hERG cells; settings: for effect on hERG ion flux (Rb+ flux, FIG. 6): HEK-hERG cells, overall statement, KCl and concentration not specified
Method: Briefly, 50,000 cells per well were plated in 96-well tissue culture treated plates 20 hours before assay. In the next day, cells were incubated with complete cell culture medium containing 5 mM RbCl for 3 hours at 37° C. with 5% CO2. Then compounds (10×) diluted in HBSS were added into the cell culture medium and cells were incubated at 37° C. with 5% CO2 for another hour. Cells were washed twice with Rb^+ free cell culture medium and incubated with 180 μl/well of cell culture medium containing different concentration of KCl for exactly 10 minutes. The supernatant from each well was transferred to a new 96 well plate immediately. Cells were lysed with 180 μl/well 0.5% Triton-100 in HBSS. The Rb^+ concentration of each sample was determined by ICR8000 (Aurora Biomed Inc.).

[5] = test system: mallotoxin DMR signal in HEK-hERG cells; assay type: cell-based, human
Excerpt: as §5, §1, §2, §3, §6

hERG channel [6] = biological target: T1, hERG channel; settings: 10 micromolar; cited from earlier work
HEK293 cells = test: Label-free RWG biosensor (Epic) DMR assay, agonism mode, native HEK293 cells without hERG; assay type: cell-based, human; settings: compound at 16 micromolar
Method: as §1, §2
All studies were carried out at a controlled temperature (28° C.). At least two independent sets of experiments, each with at least three replicates, were performed. […] All dose-dependent responses were analyzed using non-linear regression method with the GraphPad Prism 5. […]

HEK-hERG cells [7] = assay type: cell-based, human; settings: microscopic imaging, data not shown
Method: To confirm these findings, several follow-up studies were carried out.

[8] = 5 mM KCl, compound at 10 or 50 μM
[9] = pretreatment with 16 micromolar compound, then 16 micromolar mallotoxin

With `O=C(O)c1ccccc1Nc1cccc(C(F)(F)F)c1` [flufenamic acid] the “DMR signal in HT29 cells” value (HT29 cells; compound at 10 μM) was “robust DMR signals”, the “modulation index against mallotoxin in HT29 cells” value ([1]; compound 10 micromolar, mallotoxin 16 micromolar, amplitude ~50 min after stimulation) was −90% and the “modulation of the mallotoxin DMR signal in HT29 cells” value ([1]; compound at 10 micromolar, mallotoxin 16 micromolar) was “selectively attenuated”. The “amplitude of outward currents evoked by depolarizing pulses” value (hERG channel [2]; 100 to 500 μM) was “enhanced the amplitude of outward currents”, the “activation and deactivation rate of hERG channels” value (hERG channel [2]) was “accelerated the activation rate of hERG channels and decelerated their deactivation” and the “DMR signal in HEK-hERG cells” value (HEK-hERG cells [3]; compound at 10 μM) was “robust DMR signals”. For the same compound, the “Rb+ signal in HEK-hERG cells” value (hERG channel [4]; [8]) was “small and dose-dependent increase”, the “effect on hERG ion flux (Rb+ flux, FIG. 6)” value (hERG channel [4]) was “weak hERG ion flux activator” and the “score of modulation index in coordination, HEK-hERG coordinate” value ([5]; 10% modulation = 1 score unit) was 1. The “modulation index against mallotoxin in HEK-hERG cells” value ([5]; compound 10 micromolar, mallotoxin 16 micromolar, amplitude 18 min after stimulation) was “~+12%”.
In the case of `CC(=O)c1c(O)c(C)c(O)c(Cc2c(O)c3c(c(C(=O)/C=C/c4ccccc4)c2O)OC(C)(C)C=C3)c1O` [mallotoxin], the “DMR signal in HT29 cells” value (HT29 cells; compound at 16 micromolar) is reported as “robust DMR signal”, the “modulation of the mallotoxin DMR signal in HT29 cells” value [1, 9] is reported as “completely caused the desensitization” and the EC50 (HEK-hERG cells [3]; amplitudes at 18 min after stimulation, read-out: apparent EC50 of dose-dependent DMR signal in HEK-hERG cells) is reported as roughly 25 µM. The “DMR signal in HEK-hERG cells” value (HEK-hERG cells [3]; compound at 16 micromolar) was “robust DMR signal”, the “Rb+ signal in HEK-hERG cells” value (hERG channel [4]; [8]) was “significant increase” and the “Rb+ signal in HEK-hERG cells” value (hERG channel [4]; 40 mM KCl, compound at 10 μM) was “obvious increase”. The “effect on hERG ion flux (Rb+ flux, FIG. 6)” value (hERG channel [4]) was “strong hERG ion flux activator”, the “shift of half maximal activation voltage (V1/2) to the hyperpolarizing direction” value (hERG channel [6]) was “more than 25 mV” and the “modulation of the mallotoxin DMR signal in HEK-hERG cells” value [5, 9] was “completely caused the desensitization”. For the same compound, the “DMR signal in HEK293 cells” value (HEK293 cells) was “net-zero DMR signal” and the “cell toxicity at high doses” value (HEK-hERG cells [7]) was “caused cell apoptosis”.
